Laboratory results: patent US11021457B2, “Class of isoindolone-imide ring-1,3-dione-2-ene compounds, composition and use thereof” (WIGEN BIOMEDICINE TECHNOLOGY (SHANGHAI) CO., LTD., priority 2017, dated 2021)

These compounds were tested on K562 (assay: Inhibition of tumor cell proliferation, CellTiter-Glo, K562). Conditions: Homo sapiens, K562; compound concentration 50 μM, 72 hours; read-out: Inhibitory activity against proliferation (cell survival rate) K562.
Assay type: cell-based
Method in brief: (§1)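 Cells seeded at 2000-10000 per well, treated immediately (suspension) or after adherence (adherent) and cultured at 37° C, 5% CO2. Viability read by CellTiter-Glo at 72 h as blank-corrected survival rate vs control. Scored at 50 μM compound: survival 60-<90% +, >30-60% ++, ≤30% +++.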

SMILES | cell survival rate (%) at 50 µM [%]
CN1C(=O)/C(=C\Nc2cccc3c2CN(C2CCC(=O)NC2=O)C3=O)C(=O)c2ccc(C(F)(F)F)cc21 (stereo not drawn) [Compound 136] | 30 to 60

Same assay, conditions: compound concentration 50 μM, 72 hours

SMILES | Inhibitory activity against proliferation (cell survival rate) K562
O=C1CCC(N2Cc3c(NC=C4C(=O)CC(c5cccc6[nH]ccc56)CC4=O)cccc3C2=O)C(=O)N1 (stereo not drawn) [Compound 3] | + (60≤survival rate (%)<90)
O=C1CCC(N2C(=O)c3cccc(NC=C4C(=O)CC(c5cccc6[nH]ccc56)CC4=O)c3C2=O)C(=O)N1 (stereo not drawn) [Compound 5] | + (60≤survival rate (%)<90)
O=C1CCC(N2C(=O)c3cccc(NC=C4C(=O)CC(c5cccc(Cl)c5Cl)CC4=O)c3C2=O)C(=O)N1 (stereo not drawn) [Compound 6] | + (60≤survival rate (%)<90)
O=C1CCC(N2Cc3c(NC=C4C(=O)CC(c5cccc(Cl)c5Cl)CC4=O)cccc3C2=O)C(=O)N1 (stereo not drawn) [Compound 7] | ++ (30<survival rate (%)≤60)
O=C1CCC(N2Cc3c(NC=C4C(=O)CC(c5c(Br)ccc(F)c5Cl)CC4=O)cccc3C2=O)C(=O)N1 (stereo not drawn) [Compound 11] | +++ (survival rate (%)≤30)
O=C1CCC(N2C(=O)c3cccc(NC=C4C(=O)CC(c5cccc6[nH]cc(Cl)c56)CC4=O)c3C2=O)C(=O)N1 (stereo not drawn) [Compound 12] | + (60≤survival rate (%)<90)

These compounds were tested on MDA-MB-453 (assay: Inhibition of tumor cell proliferation, CellTiter-Glo, MDA-MB-453). Conditions: Homo sapiens, MDA-MB-453; compound concentration 50 μM, 72 hours; read-out: Inhibitory activity against proliferation (cell survival rate) MDA-MB-453.
Assay type: cell-based
Method in brief: as §1

SMILES | cell survival rate (%) at 50 µM [%]
CN1C(=O)/C(=C\Nc2cccc3c2CN(C2CCC(=O)NC2=O)C3=O)C(=O)c2ccc(C(F)(F)F)cc21 (stereo not drawn) [Compound 136] | ≤ 30

Same assay, conditions: compound concentration 50 μM, 72 hours

SMILES | Inhibitory activity against proliferation (cell survival rate) MDA-MB-453
O=C1CCC(N2Cc3c(NC=C4C(=O)CC(c5cccc6[nH]ccc56)CC4=O)cccc3C2=O)C(=O)N1 (stereo not drawn) [Compound 3] | ++ (30<survival rate (%)≤60)
O=C1CCC(N2C(=O)c3cccc(NC=C4C(=O)CC(c5cccc6[nH]ccc56)CC4=O)c3C2=O)C(=O)N1 (stereo not drawn) [Compound 5] | +++ (survival rate (%)≤30)
O=C1CCC(N2C(=O)c3cccc(NC=C4C(=O)CC(c5cccc(Cl)c5Cl)CC4=O)c3C2=O)C(=O)N1 (stereo not drawn) [Compound 6] | + (60≤survival rate (%)<90)
O=C1CCC(N2Cc3c(NC=C4C(=O)CC(c5cccc(Cl)c5Cl)CC4=O)cccc3C2=O)C(=O)N1 (stereo not drawn) [Compound 7] | ++ (30<survival rate (%)≤60)
O=C1CCC(N2Cc3c(NC=C4C(=O)CC(c5c(Br)ccc(F)c5Cl)CC4=O)cccc3C2=O)C(=O)N1 (stereo not drawn) [Compound 11] | + (60≤survival rate (%)<90)
O=C1CCC(N2C(=O)c3cccc(NC=C4C(=O)CC(c5cccc6[nH]cc(Cl)c56)CC4=O)c3C2=O)C(=O)N1 (stereo not drawn) [Compound 12] | + (60≤survival rate (%)<90)

The compounds below were run on SU-DHL6 (assay: Inhibition of tumor cell proliferation, CellTiter-Glo, SU-DHL6). Conditions: Homo sapiens, SU-DHL-6; compound concentration 50 μM, 72 hours; read-out: Inhibitory activity against proliferation (cell survival rate) SU-DHL6.
Assay type: cell-based
Method in brief: as §1

SMILES | cell survival rate (% of control) at 50 µM [%]
CN1C(=O)/C(=C\Nc2cccc3c2CN(C2CCC(=O)NC2=O)C3=O)C(=O)c2ccc(C(F)(F)F)cc21 (stereo not drawn) [Compound 136] | 60 to 90

Same assay, conditions: compound concentration 50 μM, 72 hours

SMILES | Inhibitory activity against proliferation (cell survival rate) SU-DHL6
O=C1CCC(N2Cc3c(NC=C4C(=O)CC(c5cccc6[nH]ccc56)CC4=O)cccc3C2=O)C(=O)N1 (stereo not drawn) [Compound 3] | +++ (survival rate (%)≤30)
O=C1CCC(N2C(=O)c3cccc(NC=C4C(=O)CC(c5cccc6[nH]ccc56)CC4=O)c3C2=O)C(=O)N1 (stereo not drawn) [Compound 5] | + (60≤survival rate (%)<90)
O=C1CCC(N2C(=O)c3cccc(NC=C4C(=O)CC(c5cccc(Cl)c5Cl)CC4=O)c3C2=O)C(=O)N1 (stereo not drawn) [Compound 6] | + (60≤survival rate (%)<90)
O=C1CCC(N2Cc3c(NC=C4C(=O)CC(c5cccc(Cl)c5Cl)CC4=O)cccc3C2=O)C(=O)N1 (stereo not drawn) [Compound 7] | +++ (survival rate (%)≤30)
O=C1CCC(N2Cc3c(NC=C4C(=O)CC(c5c(Br)ccc(F)c5Cl)CC4=O)cccc3C2=O)C(=O)N1 (stereo not drawn) [Compound 11] | + (60≤survival rate (%)<90)
O=C1CCC(N2C(=O)c3cccc(NC=C4C(=O)CC(c5cccc6[nH]cc(Cl)c56)CC4=O)c3C2=O)C(=O)N1 (stereo not drawn) [Compound 12] | + (60≤survival rate (%)<90)

What follows are compounds tested against LC3B (Homo sapiens (Human), UniProt Q9GZQ8) (assay: Fluorescence polarization experiment targeting LC3B (GST-LC3B with FITC-labeled peptide)). Conditions: not given.

SMILES | IC50 [nM]
CN1C(=O)/C(=C\Nc2cccc3c2CN(C2CCC(=O)NC2=O)C3=O)C(=O)c2ccc(C(F)(F)F)cc21 (stereo not drawn) [Compound 136] | 3000 to 15000

Same assay, conditions: GST-LC3B 180 nM, FITC-labeled peptide 18 nM, 25° C.

SMILES | IC50 [nM]
O=C1CCC(N2Cc3c(NC=C4C(=O)CC(c5cccc6[nH]ccc56)CC4=O)cccc3C2=O)C(=O)N1 (stereo not drawn) [Compound 3] | < 3000
O=C1CCC(N2C(=O)c3cccc(NC=C4C(=O)CC(c5cccc6[nH]ccc56)CC4=O)c3C2=O)C(=O)N1 (stereo not drawn) [Compound 5] | < 3000
O=C1CCC(N2C(=O)c3cccc(NC=C4C(=O)CC(c5cccc(Cl)c5Cl)CC4=O)c3C2=O)C(=O)N1 (stereo not drawn) [Compound 6] | < 3000
O=C1CCC(N2Cc3c(NC=C4C(=O)CC(c5cccc(Cl)c5Cl)CC4=O)cccc3C2=O)C(=O)N1 (stereo not drawn) [Compound 7] | < 3000
O=C1CCC(N2Cc3c(NC=C4C(=O)CC(c5c(Br)ccc(F)c5Cl)CC4=O)cccc3C2=O)C(=O)N1 (stereo not drawn) [Compound 11] | < 3000
O=C1CCC(N2C(=O)c3cccc(NC=C4C(=O)CC(c5cccc6[nH]cc(Cl)c56)CC4=O)c3C2=O)C(=O)N1 (stereo not drawn) [Compound 12] | < 3000

These compounds were tested on A549 (assay: Inhibition of tumor cell proliferation, CellTiter-Glo, A549). Conditions: compound concentration 50 μM, 72 hours.
Assay type: cell-based
Method in brief: as §1

SMILES | Inhibitory activity against proliferation (cell survival rate) A549
O=C1CCC(N2Cc3c(NC=C4C(=O)CC(c5cccc6[nH]ccc56)CC4=O)cccc3C2=O)C(=O)N1 (stereo not drawn) [Compound 3] | + (60≤survival rate (%)<90)
O=C1CCC(N2C(=O)c3cccc(NC=C4C(=O)CC(c5cccc6[nH]ccc56)CC4=O)c3C2=O)C(=O)N1 (stereo not drawn) [Compound 5] | +++ (survival rate (%)≤30)
O=C1CCC(N2C(=O)c3cccc(NC=C4C(=O)CC(c5cccc(Cl)c5Cl)CC4=O)c3C2=O)C(=O)N1 (stereo not drawn) [Compound 6] | + (60≤survival rate (%)<90)
O=C1CCC(N2Cc3c(NC=C4C(=O)CC(c5cccc(Cl)c5Cl)CC4=O)cccc3C2=O)C(=O)N1 (stereo not drawn) [Compound 7] | ++ (30<survival rate (%)≤60)
O=C1CCC(N2Cc3c(NC=C4C(=O)CC(c5c(Br)ccc(F)c5Cl)CC4=O)cccc3C2=O)C(=O)N1 (stereo not drawn) [Compound 11] | + (60≤survival rate (%)<90)
O=C1CCC(N2C(=O)c3cccc(NC=C4C(=O)CC(c5cccc6[nH]cc(Cl)c56)CC4=O)c3C2=O)C(=O)N1 (stereo not drawn) [Compound 12] | + (60≤survival rate (%)<90)

Each compound was assayed on RPMI-8226 (assay: Inhibition of tumor cell proliferation, CellTiter-Glo, RPMI-8226). Conditions: Homo sapiens, RPMI-8226; compound concentration 50 μM, 72 hours; read-out: Inhibitory activity against proliferation (cell survival rate) RPMI-8226.
Assay type: cell-based
Method in brief: as §1

SMILES | cell survival rate (% of control) at 50 µM [%]
CN1C(=O)/C(=C\Nc2cccc3c2CN(C2CCC(=O)NC2=O)C3=O)C(=O)c2ccc(C(F)(F)F)cc21 (stereo not drawn) [Compound 136] | ≤ 30

Same assay, conditions: compound concentration 50 μM, 72 hours

SMILES | Inhibitory activity against proliferation (cell survival rate) RPMI-8226
O=C1CCC(N2Cc3c(NC=C4C(=O)CC(c5cccc6[nH]ccc56)CC4=O)cccc3C2=O)C(=O)N1 (stereo not drawn) [Compound 3] | + (60≤survival rate (%)<90)
O=C1CCC(N2C(=O)c3cccc(NC=C4C(=O)CC(c5cccc6[nH]ccc56)CC4=O)c3C2=O)C(=O)N1 (stereo not drawn) [Compound 5] | + (60≤survival rate (%)<90)
O=C1CCC(N2C(=O)c3cccc(NC=C4C(=O)CC(c5cccc(Cl)c5Cl)CC4=O)c3C2=O)C(=O)N1 (stereo not drawn) [Compound 6] | + (60≤survival rate (%)<90)
O=C1CCC(N2Cc3c(NC=C4C(=O)CC(c5cccc(Cl)c5Cl)CC4=O)cccc3C2=O)C(=O)N1 (stereo not drawn) [Compound 7] | ++ (30<survival rate (%)≤60)
O=C1CCC(N2Cc3c(NC=C4C(=O)CC(c5c(Br)ccc(F)c5Cl)CC4=O)cccc3C2=O)C(=O)N1 (stereo not drawn) [Compound 11] | + (60≤survival rate (%)<90)
O=C1CCC(N2C(=O)c3cccc(NC=C4C(=O)CC(c5cccc6[nH]cc(Cl)c56)CC4=O)c3C2=O)C(=O)N1 (stereo not drawn) [Compound 12] | + (60≤survival rate (%)<90)

The compounds below were run on BxPC-3 (assay: Inhibition of tumor cell proliferation, CellTiter-Glo, BxPC-3). Conditions: Homo sapiens, BXPC-3; compound concentration 50 μM, 72 hours; read-out: Inhibitory activity against proliferation (cell survival rate) BxPC-3.
Assay type: cell-based
Method in brief: as §1

SMILES | cell survival rate (%) at 50 µM [%]
CN1C(=O)/C(=C\Nc2cccc3c2CN(C2CCC(=O)NC2=O)C3=O)C(=O)c2ccc(C(F)(F)F)cc21 (stereo not drawn) [Compound 136] | 60 to 90

Same assay, conditions: compound concentration 50 μM, 72 hours

SMILES | Inhibitory activity against proliferation (cell survival rate) BxPC-3
O=C1CCC(N2Cc3c(NC=C4C(=O)CC(c5cccc6[nH]ccc56)CC4=O)cccc3C2=O)C(=O)N1 (stereo not drawn) [Compound 3] | + (60≤survival rate (%)<90)
O=C1CCC(N2C(=O)c3cccc(NC=C4C(=O)CC(c5cccc6[nH]ccc56)CC4=O)c3C2=O)C(=O)N1 (stereo not drawn) [Compound 5] | + (60≤survival rate (%)<90)
O=C1CCC(N2C(=O)c3cccc(NC=C4C(=O)CC(c5cccc(Cl)c5Cl)CC4=O)c3C2=O)C(=O)N1 (stereo not drawn) [Compound 6] | + (60≤survival rate (%)<90)
O=C1CCC(N2Cc3c(NC=C4C(=O)CC(c5cccc(Cl)c5Cl)CC4=O)cccc3C2=O)C(=O)N1 (stereo not drawn) [Compound 7] | + (60≤survival rate (%)<90)
O=C1CCC(N2Cc3c(NC=C4C(=O)CC(c5c(Br)ccc(F)c5Cl)CC4=O)cccc3C2=O)C(=O)N1 (stereo not drawn) [Compound 11] | + (60≤survival rate (%)<90)
O=C1CCC(N2C(=O)c3cccc(NC=C4C(=O)CC(c5cccc6[nH]cc(Cl)c56)CC4=O)c3C2=O)C(=O)N1 (stereo not drawn) [Compound 12] | + (60≤survival rate (%)<90)
